The text below walks through data of the NIST ThermoML archive (doi:10.1021/je501083d).

Numbers after ± are expanded uncertainties.

For the data set the following is noted: 101.33 kPa, Liquid, Pycnometric method.

As a reminder, the mass density is the mass of a sample divided by its volume.

With `CCCCn1cc[n+](C)c1.F[B-](F)(F)F` [1-butyl-3-methylimidazolium tetrafluoroborate], the mass density reads like this: (288.2 K) 1205.4 ± 2.5 kg/m3; (293.2 K) 1202.1 ± 2.5 kg/m3; (298.2 K) 1199.4 ± 2.5 kg/m3; (303.2 K) 1195.4 ± 2.5 kg/m3; (308.2 K) 1191.7 ± 2.5 kg/m3; (313.2 K) 1188 ± 2.5 kg/m3.
With `CCCCn1cc[n+](C)c1.F[P-](F)(F)(F)(F)F` [1-butyl-3-methylimidazolium hexafluorophosphate], the mass density is listed as 1375.8 ± 2.8 kg/m3 (288.2 K); 1371.5 ± 2.8 kg/m3 (293.2 K); 1368.4 ± 2.8 kg/m3 (298.2 K); 1363.5 ± 2.8 kg/m3 (303.2 K); 1359.3 ± 2.8 kg/m3 (308.2 K); 1355 ± 2.8 kg/m3 (313.2 K).
Turning to `CCCC[n+]1ccn(C)c1.O=S(=O)([N-]S(=O)(=O)C(F)(F)F)C(F)(F)F`, the mass density (288.2 K) is listed as 1443.6 ± 6.1 kg/m3; the mass density (293.2 K) stood at 1439.7 ± 6.1 kg/m3; the mass density (298.2 K) came out at 1435.6 ± 6 kg/m3; the mass density (303.2 K) worked out at 1431.3 ± 6 kg/m3; the mass density (308.2 K) was 1426.8 ± 6 kg/m3; the mass density (313.2 K) came out at 1421.9 ± 6 kg/m3.
